Where two headings read alike, the source gives them in different places. Marks after values point to notes of the source that are not given here.
How the values were obtained:
[1] = cited from earlier work
[2] = Balanced, randomized 4-phase cross-over study, Profile of Mood State (POMS) rating scale after intravenous administration; format: in vivo, healthy male volunteers; details: for composite "Dysphoria" ratings: POMS Anger-Hostility plus Depression plus Tension-Anxiety, compared with placebo, Figure 3; for vigor ratings: POMS Vigor-Activity, compared with 1-MPH and placebo, Figure 2; for effect on "Energy": POMS composite score (Vigor-Activity minus Fatigue-Inertia), Figure 1; for rank order of ratings of the three components of "Dysphoria" (Tension, Depression and Anger): four treatments, same order for each component, Figure 4
Procedure: A balanced, randomized 4-phase cross-over study was carried out in 12 healthy male volunteers who each received intravenous administrations of dl-MPH, d-threo-methylphenidate (d-MPH), 1-MPH and placebo. The Profile of Mood State (POMS) rating scale was used to estimate pharmacodynamic factors including Anger-Hostility, Confusion-Bewilderment, Depression-Dejection, Fatigue-Inertia, Tension-Anxiety, and Vigor-Activity. In addition composite scores were also produced for "Energy" ("Vigor-Activity" minus "Fatigue-Inertia") and 'Dysphoria" ("Anger-Hostility" plus […] plus "Tension-Anxiety").
This paradox apparently arose because d-MPH enhanced both components of "Energy" (Vigor-Activity and Fatigue-Inertia) over the test period.
The Fatigue-Inertia factor was not a simple rebound phenomenon.
There were very robust effects of drug condition on composite "Dysphoria" ratings. The d-MPH and to a lesser extent dl-MPH both increased "Dysphoria" compared with the placebo or 1-MPH.
Figure 4 depicts the response of the three components of "Dysphoria" (Tension, Depression and Anger) to the four treatments. […] Thus it appears that the overall pharmacodynamic effect of dl-MPH may represent an interaction between the "Dysphoric" effects of d-MPH and the mildly euphoric effects of 1-MPH. It is conceivable that the 1-MPH will emerge as euphoriant or antidepressant in subjects with higher baseline "Dysphoria" scores such as depressed patients in whom the dose of 1-MPH will have to be titrated.

[3] = mean ±SD in plasma; intravenous 10mg dl-MPH; 11 healthy male volunteers; cited from earlier work
[4] = biological target: central dopamine transporters (Homo sapiens, UniProt Q01959); details: after oral administration of dl-MPH in humans; cited from earlier work
central dopamine transporters, sequence (Q01959 whole entry): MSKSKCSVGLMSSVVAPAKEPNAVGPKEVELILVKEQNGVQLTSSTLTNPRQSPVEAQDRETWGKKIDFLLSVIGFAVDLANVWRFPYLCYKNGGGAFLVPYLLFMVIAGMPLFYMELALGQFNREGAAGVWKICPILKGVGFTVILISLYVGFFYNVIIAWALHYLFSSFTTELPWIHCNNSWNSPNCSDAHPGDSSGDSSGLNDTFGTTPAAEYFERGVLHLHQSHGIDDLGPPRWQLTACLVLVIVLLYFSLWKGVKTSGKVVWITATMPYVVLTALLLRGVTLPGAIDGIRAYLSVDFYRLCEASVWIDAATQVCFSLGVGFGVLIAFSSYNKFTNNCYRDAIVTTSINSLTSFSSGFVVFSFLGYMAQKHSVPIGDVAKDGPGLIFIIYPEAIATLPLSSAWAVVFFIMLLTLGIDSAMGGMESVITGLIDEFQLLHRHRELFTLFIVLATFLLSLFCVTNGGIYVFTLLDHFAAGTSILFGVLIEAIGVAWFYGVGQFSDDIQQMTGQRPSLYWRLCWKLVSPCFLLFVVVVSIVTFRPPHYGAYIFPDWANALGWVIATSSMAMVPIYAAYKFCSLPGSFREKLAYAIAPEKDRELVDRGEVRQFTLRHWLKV

[5] = oral, cited from earlier work

Row | SMILES | absolute bioavailability (F) ([1]; after oral administration of the racemic drug) | composite "Dysphoria" ratings [2] | vigor ratings [2] | effect on "Energy" [2] | rank order of ratings of the three components of "Dysphoria" (Tension, Depression and Anger) [2] | CLR [3] | MRT [3] | Vdss [3] | blocking central dopamine transporters [4] | Hamilton depression scale decreased ([5]; 3 subjects, decreased minimally) | Hamilton depression scale decreased ([5]; 7 subjects, depressive symptoms decreased markedly) | benefit in depressed patients ([5]; n = 16) | concentrations in plasma and brain ([1]; after oral administration of dl-MPH, extensive enantioselective first pass metabolism) | CL [3]
1 | COC(=O)[C@H](c1ccccc1)[C@H]1CCCCN1 [d-MPH, d-threo-methylphenidate] | 0.25 | increased | significantly different | not strongly energizing | 1-MPH < placebo < dl-MPH < d-MPH | 0.005±0.003 l/kg.h^-1 | 6.53 ± 1.62 h | 2.65 ± 1.11 L/kg | very effective | – | – | – | – | –
2 | COC(=O)[C@H](c1ccccc1)[C@H]1CCCCN1 (racemic) [dl-MPH, dl-threo-methylphenidate] | – | increased | significantly different | enhanced | 1-MPH < placebo < dl-MPH < d-MPH | – | – | – | – | < 30% | > 55% | statistically and clinically significant | – | –
3 | COC(=O)[C@@H](c1ccccc1)[C@@H]1CCCCN1 [1-MPH, 2S,2'S-methyl 2-phenyl-2-(2'-piperidyl)acetate] | – | numerically lower | – | – | 1-MPH < placebo < dl-MPH < d-MPH | 0.005±0.003^c l/kg.h^-1 | 2.44±0.51^b h | 1.80±0.91^b L/kg | – | – | – | – | very low | 0.73±0.028^h L/kg.h^-1
